From ChEMBL document CHEMBL3272252, “A novel prostaglandin endoperoxide mimic, prostaglandin F2alpha acetal” (J Med Chem, 1977)
Values after ≈ are worked out from the molar mass of the structure shown. Active and inactive are the calls of the source. The calls are words filed in the database; no cut-off is given here.

Legend:
Platelet [1] = assay: Induction of irreversible platelet aggregation in human citrated platelet-rich plasma at 100 to 250 ng/ml; format: functional
[2] = Vasocontractile activity in gerbil colon assessed as smooth muscle contractile response relative to PGF2alpha; format: functional, Gerbillinae, Muscle tissue
[3] = Vasocontractile activity in rabbit aorta assessed as smooth muscle contractile response relative to PGE2; format: functional, Oryctolagus cuniculus, Muscle tissue
[4] = Retardation factor of the compound using CHCl3-EtOAc-HOAc at ratio of 50:50:1 as solvent system by thin layer chromatography; format: physicochemical
[5] = Stability of the compound in Krebs solution at pH 8.2 at 4 degC after 1 week; format: physicochemical; settings: buffer, pH 8.2, 168 h
[6] = (§1) Vasocontractile activity in dog lateral saphenous vein assessed as smooth muscle contractile response; format: functional; settings: Canis lupus familiaris, read-out: ED50 (the source's name)
[7] = Vasocontractile activity in dog lateral saphenous vein assessed as smooth muscle contractile response relative to PGF2alpha; format: functional, Canis lupus familiaris
Platelet [8] = assay: Induction of platelet aggregation in human citrated platelet-rich plasma assessed as internal contractile response with granules being squeezed into cell centre surrounded closely by microtubules and contractile microfilaments by transmission electron microscopy; format: functional
[9] = Vasocontractile activity in dog lateral saphenous vein assessed as smooth muscle contractile response in presence of PG synthase inhibitor indomethacin; format: functional, tissue-based; settings: Canis lupus familiaris
Platelet [10] = assay: Induction of platelet aggregation in human citrated platelet-rich plasma in presence of 10 ug/ml PG synthase inhibitor indomethacin; format: functional
Oryctolagus cuniculus = species on record: Oryctolagus cuniculus; assay: Vasocontractile activity in rabbit aorta assessed as smooth muscle contractile response; format: functional, tissue-based; settings: Muscle tissue
Gerbillinae = assay: Vasocontractile activity in gerbil colon assessed as smooth muscle contractile response; format: functional, tissue-based; settings: Muscle tissue
Platelet [11] = assay: Induction of irreversible platelet aggregation in human citrated platelet-rich plasma at 5 to 10 ug/ml; format: functional
Platelet [12] = assay: Induction of reversible platelet aggregation in human citrated platelet-rich plasma at 0.7 to 4 ug/ml; format: functional
Canis lupus familiaris = species on record: Canis lupus familiaris; assay: as §1; format: functional

CCCCC[C@@H](/C=C/[C@@H]1[C@@H](C/C=C\CCCC(=O)O)[C@H]2C[C@H]1OO2)OO
Activity (Platelet [1]): Active | Activity [2]: 1.5% | Activity [3]: 80%

CCCCC[C@H](O)/C=C/[C@@H]1[C@@H](C/C=C\CCCC(=O)O)[C@@H]2C[C@H]1OC(C)O2 (mixture of isomers)
Rf [4]: 0.49

CCCCC[C@H](O)/C=C/[C@@H]1[C@@H](C/C=C\CCCC(=O)O)[C@@H]2C[C@H]1OC(C)O2 (stereo in doubt; 1a) [listing 1 of 2 here]
Stability [5]: Stable | Activity [2]: 0.12% | EC50 [6]: 5.8 ng/mL (≈ 0.0152 µM) | Rf [4]: 0.53 | Activity [7]: 32% | Activity [3]: 19%

CCCCC[C@H](O)/C=C/[C@@H]1[C@@H](C/C=C\CCCC(=O)O)[C@@H]2C[C@H]1OC(C)O2 (stereo in doubt; 1a) [listing 2 of 2 here]
Activity (Platelet [8]): Active | Activity [9]: Active | Activity (Platelet [10]): Active | Activity (Oryctolagus cuniculus): Dose-dependent effect | Activity (Gerbillinae): Dose-dependent effect | Activity (Platelet [11]): Active | Activity (Platelet [12]): Active | Activity (Canis lupus familiaris): Dose-dependent effect
